According to US9394268B2, “(E)-1-(5-methoxy-2,2-dimethyl-2H-chromen-8-yl)-3-(4-methoxyphenyl)prop-2-en-1-one and analogs thereof, as well as preparation method and use thereof” (Sichuan University, priority 2012, dated 2016):

Key:
Format in all cases: cell-based
[1] = system: K562; experiment: Cell proliferative assay (MTT), K562; conditions: Homo sapiens, 72 h incubation, read-out: IC50s K562
Experimental: (§1) The synthesized compounds were evaluated for their cytotoxin activity against suspended tumor cells. These cells were seeded on 96-well plates and incubated for 24 h. Selected compounds were added at various doses and incubated for 72 h, MTT was then added, and the absorbance was measured at a wavelength of 590 nm. IC50 values are expressed as the mean±SEM from the dose-response curves of at least three independent experiments.

[2] = system: HepG2; experiment: Cell proliferative assay (MTT), HepG2; conditions: Homo sapiens, 72 h incubation, read-out: IC50s HepG2
Experimental: as §1

[3] = system: LO2; experiment: Cell proliferative assay (MTT), LO2; conditions: Homo sapiens, L02, 72 h incubation, read-out: IC50s LO2
Experimental: as §1

[4] = system: A549; experiment: Cell proliferative assay (MTT), A549; conditions: Homo sapiens, 72 h incubation, read-out: IC50s A549
Experimental: as §1

[5] = system: A375; experiment: Cell proliferative assay (MTT), A375; conditions: Homo sapiens, A-375, 72 h incubation, read-out: IC50s A375
Experimental: as §1

[6] = system: SMMC-7221; experiment: Cell proliferative assay (MTT), SMMC-7221; conditions: 72 h incubation, read-out: IC50s SMMC-7221
Experimental: as §1

| SMILES | IC50 [1] [µM] | IC50 [2] [µM] | IC50 [3] [µM] | IC50 [4] [µM] | IC50 [5] [µM] | IC50 [6] [µM] |
| --- | --- | --- | --- | --- | --- | --- |
| COc1ccc(/C=C/C(=O)c2ccc(OC)c3c2OC(C)(C)C=C3)cc1OS(=O)(=O)c1ccc(C)cc1 [SKLBC-69, (E)-2-methoxy-5-(3-(5-methoxy-2,2-dimethyl-2H-chromen-8-yl)-3-oxoprop-1-en-1-yl)phenyl 4-methylbenzenesulfonate] | 7.85 | 3.6 | > 10 | 8.6 | 2.4 | 9.2 |
| COc1ccc(/C=C/C(=O)c2ccc(OC)c3c2OC(C)(C)C=C3)cc1NC(N)=O [SKLBC-98, (E)-1-(2-methoxy-5-(3-(5-methoxy-2,2-dimethyl-2H-chromen-8-yl)-3-oxoprop-1-en-1-yl)phenyl)urea] | 7.85 | 3.6 | > 10 | 8.6 | 2.4 | 9.2 |
| COc1ccc(/C=C/C(=O)c2ccc(OC)c3c2OC(C)(C)C=C3)cc1OCCN1CCOCC1 [SKLBC-57, (E)-1-(5-methoxy-2,2-dimethyl-2H-chromen-8-yl)-3-(4-methoxy-3-(2-morpholinoethoxy)phenyl)prop-2-en-1-one] | > 10 | > 10 | > 20 | > 10 | > 10 | > 10 |
| COc1ccc(/C=C/C(=O)c2ccc(OC)c3c2OC(C)(C)C=C3)cc1[N+](=O)[O-] [SKLBC-82, (E)-1-(5-methoxy-2,2-dimethyl-2H-chromen-8-yl)-3-(4-methoxy-3-nitrophenyl)prop-2-en-1-one] | > 10 | > 10 | > 20 | > 10 | > 10 | > 10 |
| C#CCNc1cc(/C=C/C(=O)c2ccc(OC)c3c2OC(C)(C)C=C3)ccc1OC [SKLBC-87, (E)-1-(5-methoxy-2,2-dimethyl-2H-chromen-8-yl)-3-(4-methoxy-3-(prop-2-yn-1-ylamino)phenyl)prop-2-en-1-one] | > 10 | > 10 | > 20 | > 10 | > 10 | > 10 |
| COc1ccc(/C=C/C(=O)c2ccc(OC)c3c2OC(C)(C)C=C3)cc1OCCN1CCCCC1 [SKLBC-60, (E)-1-(5-methoxy-2,2-dimethyl-2H-chromen-8-yl)-3-(4-methoxy-3-(2-(piperidin-1-yl)ethoxy)phenyl)prop-2-en-1-one] | > 10 | > 10 | > 20 | > 10 | > 10 | > 10 |
| COc1ccc(/C=C/C(=O)c2ccc(OC)c3c2OC(C)(C)C=C3)cc1NS(C)(=O)=O [SKLBC-99, (E)-N-(2-methoxy-5-(3-(5-methoxy-2,2-dimethyl-2H-chromen-8-yl)-3-oxoprop-1-en-1-yl)phenyl)methanesulfonamide] | 8.85 | 10 | 9.8 | > 10 | 9 | 5.6 |
| COc1ccc(/C=C/C(=O)c2ccc(OC)c3c2OC(C)(C)C=C3)cc1OCCO [SKLBC-58, (E)-3-(3-(2-hydroxyethoxy)-4-methoxyphenyl)-1-(5-methoxy-2,2-dimethyl-2H-chromen-8-yl)prop-2-en-1-one] | 0.5 | 0.226 | > 10 | 0.58 | 0.67 | 1.32 |
| COc1ccc(/C=C/C(=O)c2ccc(OC)c3c2OC(C)(C)C=C3)cc1OC(=O)C(C)C [SKLBC-81, (E)-2-methoxy-5-(3-(5-methoxy-2,2-dimethyl-2H-chromen-8-yl)-3-oxoprop-1-en-1-yl)phenyl isobutyrate] | 0.57 | 0.15 | > 10 | 0.98 | 0.505 | 2.63 |
| COc1ccc(/C=C/C(=O)c2ccc(OC)c3c2OC(C)(C)C=C3)cc1NCCN1CCOCC1 [SKLBC-89, (E)-1-(5-methoxy-2,2-dimethyl-2H-chromen-8-yl)-3-(4-methoxy-3-((2-morpholinoethyl)amino)phenyl)prop-2-en-1-one] | 0.093 | 0.05 | 2.65 | 0.215 | 0.215 | 0.245 |
| COc1ccc(/C=C/C(=O)c2ccc(OC)c3c2OC(C)(C)C=C3)cc1OCC=C(C)C [SKLBC-71, (E)-1-(5-methoxy-2,2-dimethyl-2H-chromen-8-yl)-3-(4-methoxy-3-((3-methylbut-2-en-1-yl)oxy)phenyl)prop-2-en-1-one] | 0.62 | 0.58 | > 10 | 1.2 | 2.2 | 0.87 |
| COc1ccc(/C=C/C(=O)c2ccc(OC)c3c2OC(C)(C)C=C3)cc1NO [SKLBC-84, (E)-3-(3-(hydroxyamino)-4-methoxyphenyl)-1-(5-methoxy-2,2-dimethyl-2H-chromen-8-yl)prop-2-en-1-one] | > 10 | > 10 | > 20 | > 10 | > 10 | > 10 |
| COc1ccc(/C=C/C(=O)c2ccc(OC)c3c2OC(C)(C)C=C3)cc1NC(C)=O [SKLBC-92, (E)-N-(2-methoxy-5-(3-(5-methoxy-2,2-dimethyl-2H-chromen-8-yl)-3-oxoprop-1-en-1-yl)phenyl)acetamide] | 3.5 | 2.85 | > 10 | 5 | 2.15 | 2.24 |
| COc1ccc(/C=C/C(=O)c2ccc(OC)c3c2OC(C)(C)C=C3)cc1NS(=O)(=O)c1ccc(C)cc1 [SKLBC-101, (E)-N-(2-methoxy-5-(3-(5-methoxy-2,2-dimethyl-2H-chromen-8-yl)-3-oxoprop-1-en-1-yl)phenyl)-4-methylbenzenesulfonamide] | > 10 | > 10 | > 10 | > 10 | > 10 | 6.8 |
| CCN(CC)c1ccc(/C=C/C(=O)c2ccc(OC(C)=O)c3c2OC(C)(C)C=C3)cc1 [SKLBC-48, (E)-8-(3-(4-(diethylamino)phenyl)acryloyl)-2,2-dimethyl-2H-chromen-5-yl acetate] | 8.75 | > 10 | > 20 | 17.1 | 9.6 | > 10 |
| CCN(CC)c1ccc(/C=C/C(=O)c2ccc(OS(=O)(=O)C3CC3)c3c2OC(C)(C)C=C3)cc1 [SKLBC-53, (E)-8-(3-(4-(diethylamino)phenyl)acryloyl)-2,2-dimethyl-2H-chromen-5-yl cyclopropanesulfonate] | 4.25 | 8.2 | > 10 | > 10 | 3.75 | 3.38 |
| COc1ccc(/C=C/C(=O)c2ccc(OC)c3c2OC(C)(C)C=C3)cc1OC(=O)C1CC1 [SKLBC-80, (E)-2-methoxy-5-(3-(5-methoxy-2,2-dimethyl-2H-chromen-8-yl)-3-oxoprop-1-en-1-yl)phenyl cyclopropanecarboxylate] | 0.41 | 0.118 | > 10 | 1.32 | 0.383 | 1.44 |
| COc1ccc(/C=C/C(=O)c2ccc(OC)c3c2OC(C)(C)C=C3)cc1NC(=O)C(C)C [SKLBC-96, (E)-N-(2-methoxy-5-(3-(5-methoxy-2,2-dimethyl-2H-chromen-8-yl)-3-oxoprop-1-en-1-yl)phenyl)isobutyramide] | > 10 | > 10 | > 20 | > 10 | > 10 | > 10 |
| COc1ccc(/C=C/C(=O)c2ccc(OC)c3c2OC(C)(C)C=C3)cc1N(CC=C(C)C)CC=C(C)C [SKLBC-88, (E)-3-(3-(bis(3-methylbut-2-en-1-yl)amino)-4-methoxyphenyl)-1-(5-methoxy-2,2-dimethyl-2H-chromen-8-yl)prop-2-en-1-one] | 7.5 | > 10 | 9.7 | > 10 | > 10 | > 10 |
| COc1ccc(/C=C/C(=O)c2ccc(OC)c3c2OC(C)(C)C=C3)cc1OCCN1CCCC1 [SKLBC-59, (E)-1-(5-methoxy-2,2-dimethyl-2H-chromen-8-yl)-3-(4-methoxy-3-(2-(pyrrolidin-1-yl)ethoxy)phenyl)prop-2-en-1-one] | > 10 | > 10 | > 20 | > 10 | > 10 | > 10 |
| C=CC(=O)Oc1cc(/C=C/C(=O)c2ccc(OC)c3c2OC(C)(C)C=C3)ccc1OC [SKLBC-75, (E)-2-methoxy-5-(3-(5-methoxy-2,2-dimethyl-2H-chromen-8-yl)-3-oxoprop-1-en-1-yl)phenyl acrylate] | 0.295 | 0.06 | > 10 | 0.49 | 0.19 | 1.16 |
| CCCCC(=O)Oc1ccc(C(=O)/C=C/c2ccc(N(CC)CC)cc2)c2c1C=CC(C)(C)O2 [SKLBC-51, (E)-8-(3-(4-(diethylamino)phenyl)acryloyl)-2,2-dimethyl-2H-chromen-5-ylpentanoate] | > 10 | > 10 | 20 | > 20 | > 10 | > 10 |
| C#CCOc1cc(/C=C/C(=O)c2ccc(OC)c3c2OC(C)(C)C=C3)ccc1OC [SKLBC-73, (E)-1-(5-methoxy-2,2-dimethyl-2H-chromen-8-yl)-3-(4-methoxy-3-(prop-2-yn-1-yloxy)phenyl)prop-2-en-1-one] | > 10 | > 10 | > 20 | > 10 | > 10 | > 10 |
